# Laboratory results reported in US9980904B2, “Dry powder formulation” (Teva Branded Pharmaceutical Products R&D, Inc., priority 2014, dated 2018).
# Key:
# Type in all cases: physicochemical
# [1] = Study 1 equilibration study: aerodynamic particle size distribution analysis (FPF and FPD) after 6 week equilibration
# Description: (§1) Two batches of fluticasone/salmeterol housed within a Spiromax® device were prepared. […] Each batch was divided into two and equilibrated for six weeks under the conditions specified by each protocol. Protocol 1: 30° C./65% RH (unwrapped) Protocol 2: 40° C. […] Two batches of fluticasone/salmeterol housed within a Spiromax® device were prepared. Combination batches of fluticasone propionate and salmeterol xinafoate were selected at two different strengths, as in study 1. Each batch was divided into two and equilibrated for six weeks under the conditions specified by each protocol. Protocol 1: 30° C./65% RH (unwrapped) Protocol 3: 40° C.
# [2] = Study 2 equilibration study: aerodynamic particle size distribution analysis (FPF and FPD) during 6 week equilibration
# Description: as §1
# [3] = Study 3 eight week in-use stability study: aerodynamic particle size distribution (FPF and FPD); conditions: eight week in-use at 30° C./65% RH (unwrapped) after equilibration by protocol 2
# Description: (§2) Following inhaler equilibration according to protocol 2 (six weeks at 40° C./75% RH wrapped in foil with desiccant), eight-week stability tests of fluticasone propionate and salmeterol xinafoate (25 μg/25 μg and 100 μg/25 μg) were conducted. The in-use stability testing was conducted at 30° C./65% RH (unwrapped) as per discussion with the FDA. […] Following inhaler equilibration according to protocol 3 (six weeks at 40° C. wrapped in foil with desiccant), six-month stability tests of fluticasone propionate and salmeterol xinafoate (25 μg/25 μg and 100 μg/25 μg) were conducted. The stability of the formulations was assessed following storage under two different condition sets.
# [4] = Study 4 six month stability study: aerodynamic particle size distribution (FPF and FPD)
# Description: as §2
# [5] = Study 1, batch 25/25 μg Fp/Sx in Spiromax, 30° C./65% RH (unwrapped)
# [6] = Study 1, batch 25/25 μg, 40° C. (wrapped in foil with desiccant)
# [7] = Study 1, batch 100/25 μg, 30° C./65% RH (unwrapped)
# [8] = Study 1, batch 100/25 μg, 40° C. (wrapped in foil with desiccant)
# [9] = Study 2, batch 25/25 μg, 30° C./65% RH (unwrapped)
# [10] = Study 2, batch 25/25 μg, 40° C. (wrapped in foil with desiccant)
# [11] = Study 2, batch 100/25 μg, 30° C./65% RH (unwrapped)
# [12] = Study 2, batch 100/25 μg, 40° C. (wrapped in foil with desiccant)
# [13] = Study 4, batch 25/25, six month storage at 25° C./60% RH (wrapped) after equilibration by protocol 3
# [14] = Study 4, batch 25/25, six month storage at 40° C. (wrapped) after equilibration by protocol 3
# [15] = Study 4, batch 100/25, six month storage at 25° C./60% RH (wrapped) after equilibration by protocol 3
# [16] = Study 4, batch 100/25, six month storage at 40° C. (wrapped) after equilibration by protocol 3
"Aerodynamic particle size distribution (% change from base) FPD [1, 5] [%]","Aerodynamic particle size distribution (% change from base) FPF [1, 5] [%]","Aerodynamic particle size distribution (% change from base) FPD [1, 6] [%]","Aerodynamic particle size distribution (% change from base) FPF [1, 6] [%]","Aerodynamic particle size distribution (% change from base) FPD [1, 7] [%]","Aerodynamic particle size distribution (% change from base) FPF [1, 7] [%]","Aerodynamic particle size distribution (% change from base) FPD [1, 8] [%]","Aerodynamic particle size distribution (% change from base) FPF [1, 8] [%]","Aerodynamic particle size distribution (% change from base) FPD [2, 9] [%]","Aerodynamic particle size distribution (% change from base) FPF [2, 9] [%]","Aerodynamic particle size distribution (% change from base) FPD [2, 10] [%]","Aerodynamic particle size distribution (% change from base) FPF [2, 10] [%]","Aerodynamic particle size distribution (% change from base) FPD [2, 11] [%]","Aerodynamic particle size distribution (% change from base) FPF [2, 11] [%]","Aerodynamic particle size distribution (% change from base) FPD [2, 12] [%]","Aerodynamic particle size distribution (% change from base) FPF [2, 12] [%]","Aerodynamic particle size distribution (% change from base) FPD ([3]; Study 3, batch 25/25 μg) [%]","Aerodynamic particle size distribution (% change from base) FPF ([3]; Study 3, batch 25/25 μg) [%]","Aerodynamic particle size distribution (% change from base) FPD ([3]; Study 3, batch 100/25 μg) [%]","Aerodynamic particle size distribution (% change from base) FPF ([3]; Study 3, batch 100/25 μg) [%]",SMILES,further results
−16,−19,−13,−12,−13,−12,−17,−14,−19,−16,−13,−12,−12,−12,−16,−14,−10,−9,0,0,"CCC(=O)O[C@]1(C(=O)SCF)[C@H](C)C[C@H]2[C@@H]3C[C@H](F)C4=CC(=O)C=C[C@]4(C)[C@@]3(F)[C@@H](O)C[C@@]21C [Fp, fluticasone propionate]","Aerodynamic particle size distribution (% change from base) FPD [4, 13]: −4%; Aerodynamic particle size distribution (% change from base) FPF [4, 13]: 0%; Aerodynamic particle size distribution (% change from base) FPD [4, 14]: −9%; Aerodynamic particle size distribution (% change from base) FPF [4, 14]: −6%; Aerodynamic particle size distribution (% change from base) FPD [4, 15]: 0%; Aerodynamic particle size distribution (% change from base) FPF [4, 15]: 0%; Aerodynamic particle size distribution (% change from base) FPD [4, 16]: −8%; Aerodynamic particle size distribution (% change from base) FPF [4, 16]: −6%"
−20,−19,−2,−2,−9,−10,0,0,−20,−18,−2,−2,−9,−10,0,0,−17,−14,−4,−3,"OCc1cc(C(O)CNCCCCCCOCCCCc2ccccc2)ccc1O (centres unmarked) [Sx, salmeterol xinafoate]","Aerodynamic particle size distribution (% change from base) FPD [4, 13]: −5%; Aerodynamic particle size distribution (% change from base) FPF [4, 13]: 0%; Aerodynamic particle size distribution (% change from base) FPD [4, 14]: −9%; Aerodynamic particle size distribution (% change from base) FPF [4, 14]: −4%; Aerodynamic particle size distribution (% change from base) FPD [4, 15]: −3%; Aerodynamic particle size distribution (% change from base) FPF [4, 15]: −1%; Aerodynamic particle size distribution (% change from base) FPD [4, 16]: −13%; Aerodynamic particle size distribution (% change from base) FPF [4, 16]: −9%"
